In general, minimal effective dose refers to the smallest amount tested that counted as effective. The low end stands for an effect from little substance, the high end for a need for much substance. One may read the ED50 as the dose that gives a 50% effect, or the effect in half of the subjects. Lower therefore signals an effect at a small dose.

Consider 9 compounds from patent US4044043A, “Derivatives of 9-oxo-13-trans-prostenoic acid esters” (American Cyanamid Company, priority 1975, dated 1977).

Molecules are shown by their SMILES. In brackets after ≈: the same amount, converted by molar mass. Read-outs that look alike come from different tables or passages of the source. A value given as a limit tells only on which side of the number the result lay.

Test [1] relates to diastolic blood pressure. Briefly: Prostaglandin-like hypotensive activity in anesthetized rats (minimal dose for about 10 mm. decrease in diastolic blood pressure). The settings on record: Rattus norvegicus; intravenous; decrease of about 10 mm. in diastolic blood pressure. The test is classed as in vivo, Male Wistar strain rats. A digest of the protocol:
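Male Wistar rats (~250 g), pentobarbital 30 mg./kg. i.v. and hexamethonium 2 mg./kg. i.v., iliac artery cannulated for blood pressure. Compounds in saline-Tween 80 given i.v. at 0.1–10.0 mg./kg.; value is the minimal dose giving ~10 mm. drop in diastolic pressure.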

The test system of test [2] is Microsporum canis ATCC 10214. Briefly: agar-dilution streak-plate antimicrobial assay. The test is classed as cell-based. The settings on record: ATCC10214, read-out: Minimal inhibitory conc. (1). A digest of the protocol:
(§1)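 Complete absence of visible growth on the streak defines the MIC, given in µg/ml. Each compound, made up at 2.5 mg/ml and diluted two-fold, is incorporated 1:10 into organism-appropriate nutrient agar before loop inoculation and incubation.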

Test [3] deals with Microsporum gypseum ATCC 14683. The experiment in a line: agar-dilution streak-plate antimicrobial assay. The test is classed as cell-based. Particulars: Nannizzia gypsea, ATCC14683, read-out: Minimal inhibitory conc. (2). Summed up: as §1
Test [4] relates to Mycobacterium smegmatis ATCC 606. The experiment in a line: agar-dilution streak-plate antimicrobial assay. The test is classed as cell-based. The settings on record: Mycolicibacterium smegmatis, ATCC606, read-out: Minimal inhibitory conc. (6). Summed up: as §1
Test [5] concerns Staphylococcus aureus Rose ATCC 14154. The experiment in a line: agar-dilution streak-plate antimicrobial assay. The test is classed as cell-based. The settings on record: ATCC14154, read-out: Minimal inhibitory conc. (7). Summed up: as §1
The subject of test [6] is Streptococcus pyogenes C 203. Briefly: agar-dilution streak-plate antimicrobial assay. The test is classed as cell-based. The settings on record: C203, read-out: Minimal inhibitory conc. (8). A digest of the protocol:
as §1

Test [7] has as its system Trichophyton mentagrophytes E 11. The experiment in a line: agar-dilution streak-plate antimicrobial assay. The test is classed as cell-based. The settings on record: E11, read-out: Minimal inhibitory conc. (4). A digest of the protocol: as §1
Test [8] relates to Trichophyton rubrum E 97. Briefly: agar-dilution streak-plate antimicrobial assay. The test is classed as cell-based. The settings on record: E97, read-out: Minimal inhibitory conc. (5). A digest of the protocol:
as §1

The subject of test [9] is Trichophyton tonsurans NIH 662. Briefly: agar-dilution streak-plate antimicrobial assay. The test is classed as cell-based. Particulars: NIH662, read-out: Minimal inhibitory conc. (3). Summed up:
as §1

The test system of test [10] is bronchospasms elicited by 5-hydroxytryptamine. Briefly: Bronchodilator Activity (Konzett Assay) against 5-hydroxytryptamine. Particulars: Cavia porcellus; three logarithmic cumulative intravenous doses. The test is classed as in vivo, guinea pigs. A digest of the protocol:
(§2)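 Guinea pigs given intravenous spasmogen (5-hydroxytryptamine, histamine or acetylcholine) per Konzett procedure. ED50 derived from three logarithmic cumulative intravenous doses of test compound.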

Test [11] has as its system bronchospasms elicited by histamine. The experiment in a line: Bronchodilator Activity (Konzett Assay) against histamine. The test is classed as in vivo, guinea pigs. Particulars: Cavia porcellus; three logarithmic cumulative intravenous doses. A digest of the protocol: as §2
Test [12] has as its system gastric acid secretion. Briefly: Inhibition of basal Gastric Acid Secretion (Acute Gastric Fistula Rat). The test is classed as in vivo, Female Sprague-Dawley rats. Particulars: 10 mg./kg. intraduodenal. On the procedure:
Inhibition of basal gastric acid secretion was determined in the acute gastric fistula rat as follows. Female Sprague-Dawley rats (Charles River Laboratories) weighing 140-160 grams are fasted in individual cages for 18-24 hours. The rats are then lightly anesthetized with ether and their front teeth extracted to avoid destruction of the plastic cannula. A midline incision is then made and the stomach and duodenum exposed. A flanged polyvinyl tube is inserted into the fundic portion of the stomach and secured with a purse string suture line using 4-0 Mersilene. The rat is then dosed by injection of the compound into the duodenum (1.0 ml. per 100 gram body weight). After dosing, the abdominal wall and skin are closed using metal wound clips. The rat is replaced in a cage containing a longitudinal slit to allow the polyvinyl tube to hang freely. An 8 ml. plastic collecting tube is attached to the flanged cannula and hangs freely below the cage. The first 30 minute sample is discarded designating this time as zero. The collecting tube is attached again and samples removed at the end of 60 and 120 minutes. Those samples are referred to as "A" and "B" in the table. The hourly samples are then transferred to a 15 ml. centrifuge tube and centrifuged for 5-10 minutes. Total and sediment volume are then recorded with the supernatant volume being used as volume of secretion. A 1 ml. or less aliquot is then removed and placed in a 50 ml. beaker containing 10 ml. of distilled water. This sample is then titrated using 0.01N NaOH to pH 7.0 using a Beckman zeromatic pH meter. Volume, titratable acidity (meq/L) and total acid output (μ eq/hour) are recorded. Percent inhibition is determined by comparison with the appropriate control. Groups of three rats were used. All compounds are administered in vehicle (0.5% methocel, 0.4% Tween 80, saline) at a constant volume of 1 ml./100 gram rat. Samples were sonicated with care to prevent overheating.

The mark [13] stands for this setting: 2 h, B: 120 minute collection, read-out: % Inhibition Total Acid Output.
Where [14] appears, read: 2 h, B: 120 minute collection, read-out: % Inhibition Total Acidity.

Take `CCCCC/C=C/[C@H]1CCC(=O)[C@@H]1CCCCCCC(=O)O` (relative stereo) [9-oxo-20-nor-13-trans-prostenoic acid]: the minimal effective dose in [1] is 0.5 to 1 mg/kg. In addition, the MIC in test [2] turned out to be 50 µg/mL (≈ 162 µM); in [3], 50 µg/mL (≈ 162 µM); in test [4] it was 62 µg/mL (≈ 201 µM); in [5] it was 250 µg/mL (≈ 810 µM); in test [6] it was 62 µg/mL (≈ 201 µM); in test [7], 25 µg/mL (≈ 81 µM). For the same compound, the results for the MIC in test [8] and in test [9] were 50 µg/mL (≈ 162 µM) and 25 µg/mL (≈ 81 µM), respectively. In addition, the ED50 was 0.152 mg/kg in test [10] and 0.126 mg/kg in test [11].
In turn, `O=C(O)CCCCCC[C@@H]1C(=O)CC[C@H]1/C=C/CCCCl` (relative stereo) [20-chloro-9-oxo-17,18,19-trinor-13-trans-prostenoic acid] returned a minimal effective dose in test [1] of 2 to 8 mg/kg. For the same compound, the MIC in [2], in test [3], in test [7], in [8] and in test [9] was 250 µg/mL (≈ 794 µM) throughout. Moreover, the ED50 is 1.48 mg/kg in [10] and 0.928 mg/kg in test [11].
Compound `O=C(O)CCCCCC[C@H]1C(=O)CC[C@@H]1/C=C/CCCCCCCl` (relative stereo) [20-chloro-9-oxo-13-trans-prostenoic acid] came in with a minimal effective dose in test [1] of 0.5 mg/kg. The MIC worked out at 250 µg/mL (≈ 700 µM) in test [2]; 62 µg/mL (≈ 174 µM) in [3]; 250 µg/mL (≈ 700 µM) in test [4]; 250 µg/mL (≈ 700 µM) in test [5]; 62 µg/mL (≈ 174 µM) in test [6]; 62 µg/mL (≈ 174 µM) in test [7]. The MIC in test [8] came out at 62 µg/mL (≈ 174 µM); in test [9], 16 µg/mL (≈ 44.8 µM). Further, the ED50 was 2.39 mg/kg in test [10] and 1.22 mg/kg in test [11].
Consider `CCC/C=C/[C@H]1CCC(=O)[C@@H]1CCCCCCC(=O)O` (relative stereo) [9-oxo-18,19,20-trinor-13-trans-prostenoic acid], for which the MIC in test [3], in [6], in test [7] and in test [9] was 250 µg/mL (≈ 892 µM) each time. Moreover, the inhibition in vivo at 10 mg/kg in test [12] (1 h, A: 60 minute collection, read-out: % Inhibition Total Acid Output) is 55%; in test [12] (1 h, A: 60 minute collection, read-out: % Inhibition Total Acidity) it was 20%; in test [12] (setting [13]), 55%; in [12] (setting [14]), 52%. Moreover, the values for the ED50 in test [10] and in test [11] were 0.484 mg/kg and 0.837 mg/kg, respectively.
In [1], `CCCCCC/C=C/[C@H]1CCC(=O)[C@@H]1CCCCCCC(=O)O` (relative stereo) [9-oxo-13-trans-prostenoic acid] registered a minimal effective dose of 0.4 mg/kg. In addition, the MIC in [2] stood at 50 µg/mL (≈ 155 µM); in [3], 50 µg/mL (≈ 155 µM); in test [4], 62 µg/mL (≈ 192 µM); in [5] it was 250 µg/mL (≈ 775 µM); in [6] it was 62 µg/mL (≈ 192 µM); in [7] it was 50 µg/mL (≈ 155 µM). Further, the MIC in test [8] is 250 µg/mL (≈ 775 µM); in test [9], 50 µg/mL (≈ 155 µM). In addition, the ED50 in [10] was found to be 0.077 mg/kg; in [11], 0.232 mg/kg.
In [1], `CCCCCCC/C=C/[C@@H]1CCC(=O)[C@H]1CCCCCCC(=O)O` (relative stereo) [20-methyl-9-oxo-13-trans-prostenoic acid] came in with a minimal effective dose of 0.5 to 2 mg/kg. For the same compound, the MIC in test [2] stood at 100 µg/mL (≈ 297 µM); in [3], 50 µg/mL (≈ 149 µM); in test [4] it was 25 µg/mL (≈ 74.3 µM); in test [5] it was 50 µg/mL (≈ 149 µM); in test [6] it was 10 µg/mL (≈ 29.7 µM); in test [7], 25 µg/mL (≈ 74.3 µM). The MIC in [8] amounted to 100 µg/mL (≈ 297 µM); in [9], 25 µg/mL (≈ 74.3 µM). The figures for the ED50 in test [10] and in test [11] were 3.42 mg/kg and 0.126 mg/kg, respectively.
Turning to `CC/C=C\CC/C=C/[C@@H]1CCC(=O)[C@H]1CCCCCCC(=O)O` (relative stereo) [9-oxo-13-trans-17-cis-prostadienoic acid], the minimal effective dose in [1] is 0.2 mg/kg. Further, the MIC amounted to 125 µg/mL (≈ 390 µM) in test [2]; 62 µg/mL (≈ 193 µM) in [3]; 62 µg/mL (≈ 193 µM) in test [4]; 250 µg/mL (≈ 780 µM) in test [5]; 62 µg/mL (≈ 193 µM) in [6]; 62 µg/mL (≈ 193 µM) in test [7]. The MIC is 125 µg/mL (≈ 390 µM) in test [8] and 62 µg/mL (≈ 193 µM) in test [9]. The ED50 in test [10] was 0.422 mg/kg; in [11], 0.65 mg/kg.
The compound `CC(C)CC/C=C/[C@@H]1CCC(=O)[C@H]1CCCCCCC(=O)O` (relative stereo) [17-methyl-9-oxo-19,20-dinor-13-trans-prostenoic acid] came in with a minimal effective dose in test [1] of 0.5 mg/kg. The MIC in test [2] turned out to be 50 µg/mL (≈ 162 µM); in test [3], 50 µg/mL (≈ 162 µM); in test [4], 62 µg/mL (≈ 201 µM); in test [5] it was 250 µg/mL (≈ 810 µM); in test [6], 62 µg/mL (≈ 201 µM); in [7] it was 25 µg/mL (≈ 81 µM). The MIC stood at 50 µg/mL (≈ 162 µM) in test [8] and 25 µg/mL (≈ 81 µM) in test [9]. Besides, the inhibition in vivo at 10 mg/kg worked out at 53% in [12] (setting [13]) and 51% in test [12] (setting [14]). Further, the ED50 came out at 2.8 mg/kg in test [10] and 1.07 mg/kg in test [11].
In test [1], `CCCCCC/C=C/[C@@H]1CCCC(=O)[C@H]1CCCCCCC(=O)O` (relative stereo) [9-oxo-10a-homo-13-trans-prostenoic acid] had a minimal effective dose of 0.2 mg/kg. For the same compound, the MIC came to 25 µg/mL (≈ 74.3 µM) in test [4]; 100 µg/mL (≈ 297 µM) in test [5]; 10 µg/mL (≈ 29.7 µM) in test [6]; 100 µg/mL (≈ 297 µM) in [7]; 100 µg/mL (≈ 297 µM) in [9]. The ED50 in test [10] is greater than 10.1 mg/kg; in test [11], 10.1 mg/kg.
